Target: T1, Human heart chymase (Homo sapiens, UniProt P23946)
T1 construct: Human heart chymase was purified according to the method of Urata et al; from tissue; host or cells: human heart
T1 sequence (P23946 22-247): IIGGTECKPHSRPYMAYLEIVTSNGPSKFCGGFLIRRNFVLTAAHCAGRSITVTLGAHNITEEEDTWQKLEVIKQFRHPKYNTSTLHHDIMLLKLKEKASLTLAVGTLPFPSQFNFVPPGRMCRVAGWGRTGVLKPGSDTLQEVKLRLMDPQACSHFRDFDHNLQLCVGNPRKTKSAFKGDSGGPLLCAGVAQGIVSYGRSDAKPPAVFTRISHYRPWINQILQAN
Assay: Measurement of chymase inhibitory activity
Format: biochemical
Conditions: purified human heart chymase, substrate Suc-Ala-Ala-Pro-Phe-MCA, pH 7.5, 30° C., 10 min preincubation
Procedure: Human heart chymase was purified according to the method of Urata et al. (J. Biol. Chem., 1990, 265, 22348). The inhibitory activity of the quinazoline derivatives of the present invention with respect to chymase was measured in the following manner. That is, the purified enzyme solution was diluted to a suitable concentration with 0.1M tris-hydrochloride buffer (pH=7.5), 1M sodium chloride, and 0.01% TritonX-100 to In obtain an enzyme solution. A 10 mM dimethyl sulfoxide (hereinafter referred to as DMSO) solution of Suc-Ala-Ala-Pro-Phe-MCA (Peptide Institute) was diluted 20-fold at the time of use by 0.1M tris-hydrochlorate, 1M sodium chloride, and 0.01% TritonX-100 to obtain the substrate solution.
75 μl of the enzyme solution warmed to 30° C. was mixed with 5 μl of DMSO solution of the test sample. The mixture was preincubated at 30° C. for 10 minutes. Next, 20 μl of a substrate solution warmed to 30° C. was mixed with the test sample-enzyme mixture and incubated at 30° c. After 10 minutes, 50 μl of 30% acetic acid was added to stop the enzymatic reaction. The amount of the AMC produced was quantified using a fluorescent photometer. At the same time, a blind test was carried out by adding, instead of the test sample solution, 5 μl of DMSO and performing the same reaction. […]

IC50 [nM]	Structure (SMILES)
300	CC(C(=O)O)C(=O)Nc1cccc(S(=O)(=O)n2c(=O)[nH]c3cc(Cl)ccc3c2=O)c1 (centres unmarked) [Example 13, 2-{3-[(7-chloro-2,4(1H,3H)-quinazolinedion-3-yl)sulfonyl]phenylaminocarbonyl}propionic acid]

Test system: not listed separately
Assay: Test of stability in human plasma
Conditions: pH 7.2
Procedure: Human plasma was diluted two-fold with 50 mM sodium phosphate buffer (pH=7.2) for use as the test plasma solution. The test sample was made a DMSO solution of 1 mM concentration.
198 μl of the above two-fold diluted plasma solution warmed to 37° C. was added to 2 μl of the test sample DMSO solution and the resultant mixture was stirred and incubated at 37° C. After 0, 5, and 15 minutes, 800 μl of acetonitrile was mixed with the test sample-plasma mixture to remove the protein, then a centrifugation operation (12,000 rpm, 1 minute) was carried out and the supernatant obtained. This was diluted two-fold with distilled water and measured for of the test sample by HPLC analysis.
For the rate of recovery from the plasma, the rates of recovery at different times were calculated based on a calibration line of the test sample in a DMSO standard solution. The half-life (t1/2) in plasma was calculated by exponential recurrence analysis from the rates of recovery of these different times.

half-life at 10 µM [h]	Structure (SMILES)
1.23	Nc1cc(S(=O)(=O)n2c(=O)[nH]c3ccc(Cl)cc3c2=O)ccc1C(=O)O [Example 32, 4-[(6-chloro-2,4(1H,3H)-quinazolinedion-3-yl)sulfonyl]anthranilic acid]
2.78	Cc1ccc(S(=O)(=O)n2c(=O)[nH]c3cc(Cl)ccc3c2=O)cc1N [Example 10, 3-(3-amino-4-methylbenzenesulfonyl)-7-chloro-2,4(1H,3H)-quinazolinedione]
1.73	COc1ccc(S(=O)(=O)n2c(=O)[nH]c3cc(Cl)ccc3c2=O)cc1NC(C)=O [Example 22, 3-(3-acetamide-4-methoxybenzenesulfonyl)-7-chloro-2,4(1H,3H)-quinazolinedione]
1.72	Nc1cc(S(=O)(=O)n2c(=O)[nH]c3cc(Cl)ccc3c2=O)ccc1C(=O)[O-].[Na+] [Example 18, 4-[(7-chloro-2,4(1H,3H)-quinazolinedion-3-yl)sulfonyl]anthranilic acid monosodium salt]
4.38	COc1ccc2c(=O)n(S(=O)(=O)c3ccc(C(=O)O)c(N)c3)c(=O)[nH]c2c1 [Example 27, 4-[(7-methoxy-2,4(1H,3H)-quinazolinedion-3-yl)sulfonyl]anthranilic acid]
4.33	Nc1cc(S(=O)(=O)n2c(=O)[nH]c3cc(Cl)ccc3c2=O)ccc1C(=O)O [Example 17, 4-[(7-chloro-2,4(1H,3H)-quinazolinedion-3-yl)sulfonyl]anthranilic acid]
2.92	Nc1ccccc1S(=O)(=O)n1c(=O)[nH]c2cc(Cl)ccc2c1=O [Example 2]
1.3	O=c1[nH]c2cc(Cl)ccc2c(=O)n1S(=O)(=O)c1cccc(O)c1 [Example 1, 7-chloro-3-(3-hydroxybenzenesulfonyl)-2,4(1H,3H)-quinazolinedione]
11.8	CS(=O)(=O)O.Nc1cccc(S(=O)(=O)n2c(=O)[nH]c3cc(Cl)ccc3c2=O)c1 [Example 34, 3-(3-aminobenzenesulfonyl)-7-chloro-2,4-(1H,3H)quinazolinedion methanesulfonic acid salt]
1.32	COc1ccc(S(=O)(=O)n2c(=O)[nH]c3cc(Cl)ccc3c2=O)cc1NS(C)(=O)=O [Example 24, 7-chloro-3-(4-methoxy-3-methylsulfonylaminobenzenesulfonyl)-2,4(1H,3H)-quinazolinedione]
> 4	O=C(O)C1Oc2ccc(S(=O)(=O)n3c(=O)[nH]c4cc(Cl)ccc4c3=O)cc2NC1=O (racemic) [Example 29, (±)-6-[(7-chloro-2,4(1H,3H)-quinazolinedion-3-yl)sulfonyl]-3-oxo-1,4-benzoxazine-2-carboxylic acid]
4.15	Nc1cccc(S(=O)(=O)n2c(=O)[nH]c3cc(Cl)ccc3c2=O)c1 [Example 12, 3-(3-aminobenzenesulfonyl)-7-chloro-2,4(1H,3H)-quinazolinedione]
0.483	Nc1cc(S(=O)(=O)n2c(=O)[nH]c3cc(Cl)ccc3c2=O)ccc1Cl [Example 8, 3-(3-amino-4-chlorobenzenesulfonyl)-7-chloro-2,4(1H,3H)-quinazolinedione]
> 4	O=C([O-])c1ccc(S(=O)(=O)n2c(=O)[nH]c3cc(Cl)ccc3c2=O)cc1O.[Na+] [Example 16, 4-[(7-chloro-2,4(1H,3H)-quinazolinedion-3-yl)sulfonyl]salicylic acid monosodium salt]

Test system: not given
Assay: not given
Conditions: human, plasma, pH 7.2

t1/2 [h]	Structure (SMILES)
1.62	CC(C(=O)O)C(=O)Nc1cccc(S(=O)(=O)n2c(=O)[nH]c3cc(Cl)ccc3c2=O)c1 (centres unmarked) [Example 13, 2-{3-[(7-chloro-2,4(1H,3H)-quinazolinedion-3-yl)sulfonyl]phenylaminocarbonyl}propionic acid]

Test system: human chymase induced vascular permeability
Assay: Test of human chymase induced vascular permeability exacerbation reaction
Format: in vivo, Wister male rats
Conditions: 10 mg/kg orally, 30 minutes before intracutaneous human chymase (20 mU), rat back skin, Evans Blue
Procedure: Wister male rats (body weight 200 to 220 g, Charles River Japan) were used. In the backs of the rats from which the hair had been shaved off, 100 μl (20 mU: 1U being amount of enzyme for producing 1 nmol of AMC in 1 minute from Suc-Ala-Ala-Pro-Phe-MCA at pH7.5 and 30° C.) of a solution of the human chymase enzyme solution purified in evaluation Example 1 diluted 100-fold by PBS (phosphate buffered saline) was injected intracutaneously, then immediately thereafter a 0.5% (w/w) Evans Blue solution was administered from the tail artery. After 30 minutes, the rats were sacrificed by draining their blood under anesthesia with ether and the amount of dye leaking out to the back skin was measured. The region of the skin where the dye leaked out was cut off and 1.0 ml of 1N KOH solution was added and the resultant mixture was allowed to stand at 37° C. overnight. Next, 4 ml of an acetone-0.6N phosphoric acid (13:5) mixture was added to extract the dye. The absorbance at 650 nm of the supernatant was measured. […]
Next, 10 mg/kg of the compound of Example 18 was orally administered. 30 minutes later, 100 μl (20 mU) of human chymase the same as the non-drug administered group was injected intracutaneously and the amount of dye leaked out similarly measured. The rate of suppression of the amount of dye leakage due to the compound was calculated according to the following calculation formula. […]

Structure (SMILES)	Rate of suppression of amount of leakage of dye [%]
Nc1cc(S(=O)(=O)n2c(=O)[nH]c3cc(Cl)ccc3c2=O)ccc1C(=O)[O-].[Na+] [Example 18, 4-[(7-chloro-2,4(1H,3H)-quinazolinedion-3-yl)sulfonyl]anthranilic acid monosodium salt]	64
